These results are taken from patent publication US20040053884A1, “Preventives or remedies for arthritis” (priority 2001, published 2004).

Where a name gives a salt, the structure may show the parent alone.

The subject of assay [1] is mice with type II collagen-induced arthritis. The assay is described as follows: Test Example 1: N-acetylhydroxyproline and glucosamine in feed, type II collagen-induced arthritis score. The format is in vivo, DBA/1J mice. The conditions noted are these: for Scores compared with control (in words): 0.1% added to the feed, compared with no additive (control); for Score of arthritis: 0.1% in feed from day of first collagen administration, mean ±SE, N=20, scale 0-16. An excerpt: (§1) Unless otherwise noted, in the following test examples, DBA/1J mice produced by Charles River, powder feed CE2 produced by CLEA Japan, N-acetylhydroxyproline produced by Kyowa Hakko Kogyo, D-glucosamine sulfate 2NaCl as glucosamine (Miyako Kagaku) and chondroitin sodium sulfate (Maruha Kagaku) as chondtoitin were used.
It is known that arthritis is induced in DBA/1J mice by administering type II collagen two times.
As the first administration of type II collagen, a solution prepared by mixing an equal amount of type II collagen [Collagen Gijutsu Kenshu Kaisha (MCK)] and Freund's complete adjuvant (Iatron) and emulsifying the mixture using a homogenizer was intradermally administered to 6-week old male DBA/1J mice in an amount of 100 μl per one animal.
Twenty-one days after the first administration of type II collagen, EXAMPLE a solution prepared by mixing an equal amount of type II collagen and Freund's complete adjuvant and emulsifying the mixture using a homogenizer in a similar manner was intradermally administered to the animals in an amount of 100 μl per one animal as the second administration of type II collagen. In this manner, arthritis was induced in mice.
Starting on the day of the first administration of type II collagen, the mice were given powder feed CE-2 containing no additive as control; powder feed CE-2 containing 0.1% N-acetylhydroxyproline (indicated as AcHYP in Tables 1-1 and 1-2); powder feed CE-2 containing 0.1% glucosamine (D-glucosamine sulfate 2NaCl); and powder feed CE-2 containing 0.05% N-acetylhydroxyproline and 0.05% glucosamine, respectively. At days 24, 28, 31, 34, 38 and 42 after the first administration of type II collagen, the extent of the development of arthritis was scored according to the following indices.
(§2) Scoring was carried out by applying 0-4 points with respect to one of four paws of mice: 0: no symptom; 1: swelling of one finger or swelling (slight) of the ankle; 2: swelling of 1-3 fingers or swelling of the ankle; 3: swelling of 3-5 fingers plus swelling of the ankle; and 4: swelling of all the fingers plus swelling of the ankle. Each mouse was scored the total of the points of 4 paws, namely, 0-16 points.
(§3) Twenty mice were subjected to the test with respect to each of the conditions.
(§4) In the tables, the figures show the scores under different treatment conditions, which are given as mean ±SE (N=20).
(§5) In the tables, “no treatment” means no administration of type II collagen, and “control” means mice were given the feed containing no additive.

Assay [2] shares this test system. The assay is described as follows: Test Example 2: N-acetylhydroxyproline and chondroitin in feed, type II collagen-induced arthritis score. On the set-up: key to Score of arthritis: sum of 4 paws scored 0-4 each, 0-16 points; 0 = no symptom. The format is in vivo, DBA/1J mice. The note with it: for Score compared with control (in words): 0.1% added to the feed; for Score of arthritis: 0.1% in feed from day of first collagen administration, mean ±SE, N=20, scale 0-16. The method, then:
as §1, §2
An experiment similar to that of Test Example 1 was carried out except that chondroitin was used in place of glucosamine.
(§6) That is, 21 days after the first administration of type II collagen, a solution prepared by mixing an equal amount of type II collagen and Freund's complete adjuvant and emulsifying the mixture using a homogenizer in a similar manner as in Test Example 1 was intradermally administered to the mice in an amount of 100 μl per one animal as the second administration of type II collagen. In this manner, arthritis was induced in mice.
Starting on the day of the first administration of type II collagen, the mice were given powder feed CE-2 containing no additive as control; powder feed CE-2 containing 0.1% N-acetylhydroxyproline (indicated as AcHYP in Tables 2-1 and 2-2); powder feed CE-2 containing 0.1% chondroitin; and powder feed CE-2 containing 0.05% N-acetylhydroxyproline and 0.05% chondroitin, respectively. At days 23, 27, 30, 33, 36, 40 and 42 after the first administration of type II collagen, the extent of the development of arthritis was scored according to the indices employed in the above Test Example 1.
as §3, §4, §5

For assay [3] the test system is unchanged. The assay is described as follows: Test Example 3: N-acetylhydroxyproline, glucosamine and chondroitin in feed, type II collagen-induced arthritis score. It counts as in vivo, DBA/1J mice. The note with it: for Score of arthritis: 0.05% of each additive in feed from day of first collagen administration, mean ±SE, N=20, scale 0-16. The method, then: as §1, §2
An experiment similar to that of Test Example 1 was carried out except that glucosamine and chondroitin were used in place of glucosamine.
as §6
Starting on the day of the first administration of type II collagen, the mice were given powder feed CE-2 containing no additive as control; powder feed CE-2 containing 0.05% N-acetylhydroxyproline (indicated as AcHYP in Tables 3-1 and 3-2); powder feed CE-2 containing 0.05% N-acetylhydroxyproline and 0.05% chondroitin; and powder feed CE-2 containing 0.05% N-acetylhydroxyproline, 0.05% glucosamine and 0.05% chondroitin, respectively. At days 24, 28, 31, 35, 38 and 42 after the first administration of type II collagen, the extent of the development of arthritis was scored according to the indices employed in the above Test Example 1.
as §3, §4, §5

Assay [4] shares this test system. The assay is described as follows: Test Example 4: feed given from day 28 (after induction), type II collagen-induced arthritis score. It counts as in vivo, DBA/1J mice. The conditions noted are these: for Scores compared with control (in words): 0.1% added to the feed from day 28, any of the days after day 33; for Score of arthritis: 0.1% in feed starting at day 28, mean ±SE, N=10, scale 0-16. As to the method:
as §1, §2
As in Test Example 1, 21 days after the first administration of type II collagen, a solution prepared by mixing an equal amount of type II collagen and Freund's complete adjuvant and emulsifying the mixture using a homogenizer in a similar manner as in Test Example 1 was intradermally administered to the mice in an amount of 100 μl per one animal as the second administration of type II collagen. In this manner, arthritis was induced in mice.
Starting at day 28 after the first administration of type II collagen, the mice were given powder feed CE-2 containing no additive as control; powder feed CE-2 containing 0.1% N-acetylhydroxyproline (indicated as AcHYP in Tables 4-1 and 4-2); powder feed CE-2 containing 0.1% glucosamine; powder feed CE-2 containing 0.05% N-acetylhydroxyproline and 0.05% glucosamine; powder feed CE-2 containing 0.05% glucosamine and 0.05% chondroitin; and powder feed CE-2 containing 0.05% N-acetylhydroxyproline, 0.025% glucosamine and 0.025% chondroitin, respectively. At days 28, 33, 36, 39 and 42 after the first administration of type II collagen, the extent of the development of arthritis was scored according to the indices employed in the above Test Example 1.
Ten mice were subjected to the test with respect to each of the conditions.
In the tables, the figures show the scores under different treatment conditions, which are given as mean ±SE (N=10).
as §5

For assay [5] the test system is unchanged. The description is as above. The format is in vivo, DBA/1J mice. The note with it: day 0 (before feeding); 0.1% in feed starting at day 28; mean ±SE, N=10; scale 0-16.
For assay [6], the system named is animal model for arthritis. The conditions noted are these: administration after induction of arthritis; J. Drug. Dev., 3, 135-142 (1990); cited from earlier work.
The subject of assay [7] is arthritis. The conditions noted are these: Pharmacological Research, 33, 367-373 (1996); cited from earlier work.

On to `CC(=O)N1C[C@H](O)C[C@H]1C(=O)O` [AcHYP, N-acetylhydroxyproline], for which the “Scores compared with control (in words)” value in assay [1] is “lowering of the scores”; in assay [3] (0.05% of each additive in the feed, any of the days after day 24), “almost no lowering of the scores”; in assay [4] it was “slight lowering of the scores”. Further, the Score of arthritis in assay [1] (day 0) was found to be 0.0 ± 0.0; in assay [1] (day 24), 0.0 ± 0.0; in assay [1] (day 28), 6.5 ± 0.7; in assay [1] (day 31), 9.5 ± 0.8; in assay [1] (day 34), 10.7 ± 0.8; in assay [1] (day 38) it was 10.8 ± 0.8. The Score of arthritis is 10.6 ± 0.8 in assay [1] (day 42); 0.0 ± 0.0 in assay [2] (day 0); 0.1 ± 0.1 in assay [2] (day 23); 3.3 ± 0.7 in assay [2] (day 27); 7.0 ± 0.9 in assay [2] (day 30); 7.8 ± 0.9 in assay [2] (day 33). The Score of arthritis in assay [2] (day 36) is listed as 7.9 ± 1.0; in assay [2] (day 40), 8.4 ± 0.9; in assay [2] (day 42), 8.8 ± 0.8; in assay [3] (day 0) it was 0.0 ± 0.0; in assay [3] (day 24), 0.2 ± 0.1; in assay [3] (day 28), 5.4 ± 0.6. Also, the Score of arthritis amounted to 8.5 ± 0.7 in assay [3] (day 31); 9.4 ± 0.8 in assay [3] (day 35); 9.9 ± 0.8 in assay [3] (day 38); 9.4 ± 0.7 in assay [3] (day 42); 4.3 ± 0.9 in assay [4] (day 28 (start of feeding)); 9.8 ± 1.0 in assay [4] (day 33). Moreover, the Score of arthritis is 10.9 ± 1.1 in assay [4] (day 36), 10.7 ± 1.1 in assay [4] (day 39), 10.8 ± 1.0 in assay [4] (day 42) and 0.0 ± 0.0 in assay [5]. The “Score compared with control (in words)” value in assay [2] (any of the days after day 27) is listed as “lowering of the score”. Besides, the Aggravation of arthritis entry in assay [6] was “can prevent aggravation of arthritis”. In addition, the “Effect on chondral injury at joints” value in assay [7] is “shows no effect”. Further, the “Effect on systemic injury of ear and tail” value in assay [7] is listed as “shows a therapeutic effect”.

Regarding `N[C@H]1C(O)O[C@H](CO)[C@@H](O)[C@@H]1O` (stereo partly drawn) [Glucosamine, D-glucosamine sulfate 2NaCl], the entries for the “Scores compared with control (in words)” value in assay [1] and in assay [4] were “lowering of the scores” and “slight lowering of the scores”, respectively. Besides, the Score of arthritis was determined as 0.0 ± 0.0 in assay [1] (day 0); 0.1 ± 0.1 in assay [1] (day 24); 5.8 ± 0.6 in assay [1] (day 28); 7.7 ± 0.7 in assay [1] (day 31); 9.2 ± 0.7 in assay [1] (day 34); 9.5 ± 0.6 in assay [1] (day 38). Also, the Score of arthritis is 9.4 ± 0.6 in assay [1] (day 42); 4.3 ± 0.9 in assay [4] (day 28 (start of feeding)); 9.8 ± 1.2 in assay [4] (day 33); 10.1 ± 1.1 in assay [4] (day 36); 10.4 ± 1.0 in assay [4] (day 39); 10.6 ± 1.0 in assay [4] (day 42). In assay [5], this molecule returned a Score of arthritis of 0.0 ± 0.0.

With chondroitin sodium sulfate, the “Score compared with control (in words)” value in assay [2] (after day 36) is given as “almost no lowering of the score”; in assay [2] (until day 33) it was “slight lowering of the score”. In addition, the Score of arthritis in assay [2] (day 0) is recorded as 0.0 ± 0.0; in assay [2] (day 23), 0.1 ± 0.1; in assay [2] (day 27) it was 3.4 ± 0.6; in assay [2] (day 30) it was 7.8 ± 1.0; in assay [2] (day 33), 9.1 ± 0.9; in assay [2] (day 36) it was 9.7 ± 0.8. Also, the values for the Score of arthritis in assay [2] (day 40) and in assay [2] (day 42) were 9.9 ± 0.8 and 9.8 ± 0.7, respectively.
